According to the METLIN SMRT retention time set (Domingo-Almenara et al. 2019):

Experiment: gradient 5% acetonitrile 3 min, to 50% in 2 min, to 85% in 15 min, held 3 min, 100 µL/min
Conditions: column: Zorbax Extend-C18 2.1 x 50 mm; eluents: water / acetonitrile, 0.1% formic acid
Outline: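 Retention times come from adduct peaks that were picked computationally and then checked by hand. The standards, pure and pooled in mixtures of ~100 molecules, were run on a Zorbax Extend-C18 column (2.1 × 50 mm, 1.8 μm) at 100 μL/min with water and acetonitrile, each with 0.1% formic acid. Detection was by quadrupole time-of-flight mass spectrometry in positive and negative ionization mode, with a dead volume of 40 μL and a dwell volume of 900 μL.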

Question: Which RP-LC retention time does the source give for `Cc1cccc(-c2noc(Cc3nnc(-c4cccc(Br)c4)o3)n2)c1` here?
Answer: The RP-LC retention time was 1150 s.

Question: For `CCOC(=O)c1ccc(Nc2c(-c3ccc(Cl)cc3)nc3cnccn23)cc1`, which RP-LC retention time is on record?
Answer: The RP-LC retention time was 964 s.

Question: For `O=C(NCC1CCN(S(=O)(=O)C2CC2)CC1)c1cc(=O)c2ccccc2o1`, which RP-LC retention time is on record?
Answer: Its RP-LC retention time is 674 s.

Question: For `CC(C)CCNC(=O)N1CC(c2nc(-c3cccnc3)no2)C2(CCOCC2)C1` (stereo unspecified), which RP-LC retention time is on record?
Answer: The RP-LC retention time was 725 s.

Question: With `COc1cccc(S(=O)(=O)N2CCC(c3noc(-c4cccnc4)n3)C2)c1` (stereo unspecified) as the compound, how does the RP-LC retention time read?
Answer: Its RP-LC retention time is 846 s.

Question: Which RP-LC retention time does the source give for `Cc1cc(C)cc(NC(=O)Cn2c(=O)c3cc(C4CC4)nn3c3ncccc32)c1` here?
Answer: The RP-LC retention time was 837 s.

Question: Which RP-LC retention time does the source give for `O=C(C1CCCC1)N1CCC(c2noc(-c3ccncc3)n2)C1` (stereo unspecified) here?
Answer: The RP-LC retention time was 863 s.

Question: With `CCCOc1ccc(CN2C[C@@H]3C(=O)N(CCCN4CCCC4=O)C(=O)[C@@H]3C2)cc1` as the compound, how does the RP-LC retention time read?
Answer: Its RP-LC retention time is 630 s.

Question: Which RP-LC retention time does the source give for `COc1ccc(NC(=O)c2nc(C)oc2C)cc1OC` here?
Answer: The RP-LC retention time was 750 s.

Question: With `CS(=O)(=O)N1CCCc2cc(C(=O)N3CCOCC3)ccc21` as the compound, how does the RP-LC retention time read?
Answer: Its RP-LC retention time is 654 s.

Question: For `CCCNC(=O)C1CCCN(c2ccc(SCC(=O)Nc3ccccc3C(=O)OCC)nn2)C1` (stereo unspecified), which RP-LC retention time is on record?
Answer: Its RP-LC retention time is 750 s.

Question: With `Cc1noc(-c2ccc(OC3CN(C(=O)NCc4ccc(F)cc4)C3)cc2)n1` as the compound, how does the RP-LC retention time read?
Answer: Its RP-LC retention time is 831 s.

Question: Which RP-LC retention time does the source give for `COc1ccc(NC(=O)N2CCCN(C3CCN(Cc4ccc(F)cc4)C3=O)CC2)cc1` (stereo unspecified) here?
Answer: The RP-LC retention time was 570 s.

Question: For `COc1ccc(N2CCN(c3cc(SCC(=O)NCc4ccc(Cl)cc4)ncn3)CC2)cc1`, which RP-LC retention time is on record?
Answer: The RP-LC retention time was 908 s.

Question: Which RP-LC retention time does the source give for `COCCn1cc2c3c(cccc31)CN(C(=O)Cc1c(F)cccc1Cl)CC2` here?
Answer: Its RP-LC retention time is 967 s.

Question: For `CN1C(=O)COc2ccc(-c3csc(NC(=O)C4CC4)n3)cc21`, which RP-LC retention time is on record?
Answer: Its RP-LC retention time is 778 s.

Question: With `Cc1[nH]c(C(=O)Nc2ccccc2)c(C)c1S(=O)(=O)N1CCCCC1` as the compound, how does the RP-LC retention time read?
Answer: Its RP-LC retention time is 925 s.

Question: For `O=C(Nc1ccc2ccccc2c1)N1CCN(c2ncc(C(F)(F)F)cc2Cl)CC1`, which RP-LC retention time is on record?
Answer: Its RP-LC retention time is 1110 s.

Question: Which RP-LC retention time does the source give for `CCOC(=O)C(C)NC(=O)N1CCCN(C2=NS(=O)(=O)C(c3ccccc3)=C2C)CC1` (stereo unspecified) here?
Answer: The RP-LC retention time was 761 s.

Question: For `Cn1cc(CN2CCN(C(=O)C3CCN(S(=O)(=O)N4CCCC4)CC3)CC2)c2ccccc21`, which RP-LC retention time is on record?
Answer: Its RP-LC retention time is 655 s.

Question: With `CCc1cc(=O)n(CC(=O)NCc2ccc(Cl)cc2)c(N)n1` as the compound, how does the RP-LC retention time read?
Answer: Its RP-LC retention time is 627 s.

Question: For `COc1ccc(S(=O)(=O)N2CCC(c3noc(-c4cccc(C)c4)n3)CC2)cc1`, which RP-LC retention time is on record?
Answer: Its RP-LC retention time is 1170 s.

Question: With `CCC1CCCCN1C(=O)c1cnc2nc(C)ccc2c1Nc1ccc(OC)c(Cl)c1` (stereo unspecified) as the compound, how does the RP-LC retention time read?
Answer: The RP-LC retention time was 668 s.

Question: Which RP-LC retention time does the source give for `Cc1ccccc1OCC(=O)N1CCN(c2cc(C)n3c(C)nnc3n2)CC1` here?
Answer: The RP-LC retention time was 630 s.

Question: With `CCN1c2ccc(C)cc2C(=O)NC12CCN(C(=O)Cc1ccc(Cl)cc1)CC2` as the compound, how does the RP-LC retention time read?
Answer: The RP-LC retention time was 919 s.

Question: For `COc1ccc(-c2c(C)noc2NC(C)=O)cc1S(=O)(=O)Nc1ccc(Cl)cc1`, which RP-LC retention time is on record?
Answer: Its RP-LC retention time is 766 s.

Question: With `COc1ccc([N+](=O)[O-])cc1NC(=O)c1cnc(N2CCN(c3ncccn3)CC2)c2ccccc12` as the compound, how does the RP-LC retention time read?
Answer: The RP-LC retention time was 973 s.

Question: Which RP-LC retention time does the source give for `CCOc1ccccc1N1CCN(S(=O)(=O)c2nn(CC)cc2C(=O)NCCOC)CC1` here?
Answer: The RP-LC retention time was 910 s.

Question: Which RP-LC retention time does the source give for `COc1ccc2c(c1)CCc1sc(NC(=O)c3ccc(F)cc3)nc1-2` here?
Answer: The RP-LC retention time was 1140 s.

Question: With `Cc1nn(C)c(C)c1CCCN(C)C(=O)c1cccc(N2CCNC(c3ccccc3)C2)n1` (stereo unspecified) as the compound, how does the RP-LC retention time read?
Answer: The RP-LC retention time was 558 s.

Question: For `CC(C(=O)NCCc1cccs1)n1c2ccccc2c2cnn(C)c(=O)c21` (stereo unspecified), which RP-LC retention time is on record?
Answer: The RP-LC retention time was 855 s.

Question: Which RP-LC retention time does the source give for `COc1ccc(-c2nc3ncccn3c2NCc2ccc(C)cc2)cc1OC` here?
Answer: Its RP-LC retention time is 709 s.

Question: With `COc1cc(F)ccc1-c1ccnc2nc(C3CCC3)nn12` as the compound, how does the RP-LC retention time read?
Answer: Its RP-LC retention time is 864 s.

Question: With `O=C(Cn1cncc(-c2nc(-c3ccccc3)cs2)c1=O)N1CCCC1` as the compound, how does the RP-LC retention time read?
Answer: The RP-LC retention time was 789 s.

Question: For `CCOC(=O)c1csc(NC(=O)c2sc3ccccc3c2Cl)n1`, which RP-LC retention time is on record?
Answer: The RP-LC retention time was 999 s.

Question: With `O=c1c2scc(-c3ccc(F)cc3)c2ncn1Cc1ccc(Br)cc1` as the compound, how does the RP-LC retention time read?
Answer: Its RP-LC retention time is 1180 s.
